Experimental data published in US10941158B2, “Pyrazole ACC inhibitors and uses thereof” (Gilead Apollo, LLC, priority 2015, dated 2021).
Values after ≈ are worked out from the molar mass of the structure shown. Where two headings read alike, the source gives them in different places.

What was measured:
human (hACC2) ACC2 = human (hACC2) ACC2 (Homo sapiens, UniProt O00763); assay: In vitro Acetyl-CoA Carboxylase (ACC) inhibition assay (ADP-Glo), hACC2; assay type: biochemical
Description: The detailed procedure is as follows. […] 10 μL ADP glo reagent was added. […] 20 μL kinase detection reagent was added.
“NA” stands for “not assayed.”

C. albicans ATCC 90028 = assay: Anti-Fungal (Candida) Activity Assay, broth microtiter MIC; assay type: cell-based; conditions: read-out: MIC C. albicans ATCC 90028
Summary of the method: (§1)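 In CLSI M27-A3 microtiter plates, yeast from overnight agar culture is inoculated in RPMI 1640–MOPS at a standard-curve density. The MIC is the endpoint scored visually against growth control at 48 h.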

C. krusei ATCC 6258 = assay: as above; assay type: cell-based; conditions: Pichia kudriavzevii, read-out: MIC C. krusei ATCC 6258
Summary of the method: as §1

[1] = system: C. parapsilosis ATCC 22019; assay: as above; assay type: cell-based; conditions: Lodderomyces parapsilosis, read-out: MIC C. parapsilosis ATCC 22019
Summary of the method: as §1

Botrtyis cinerea (Bc) = assay: Growth inhibition assay of fungal pathogens; assay type: cell-based; conditions: 48 h, read-out: Concentration at 90% Inhibition Bc
Summary of the method: (§2)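 Liquid-culture assay in which test compounds are applied at three final concentrations (50, 10, 2 ppm or 2, 0.4, 0.08 ppm). Inoculum levels follow 48 h growth curves for each fungus. Growth is monitored by OD600 and by eye, and the 48 h values give % inhibition against DMSO.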

[2] = system: Collectotrichum graminicola (Cg); assay: Growth inhibition assay of fungal pathogens; assay type: cell-based; conditions: 48 h, read-out: Concentration at 90% Inhibition Cg
Summary of the method: (§3)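 Percent growth inhibition was derived from 48 h OD600 and visual scores relative to 2% DMSO, with blank background subtraction. Fungi were grown from spores in 17% V8 liquid medium, R. solani from 1.5 mm plugs in ¼ PDB, with compound at final 50/10/2 or 2/0.4/0.08 ppm.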

Diplodia maydis (Dm) = assay: Growth inhibition assay of fungal pathogens; assay type: cell-based; conditions: Stenocarpella maydis, 48 h, read-out: Concentration at 90% Inhibition Dm
Summary of the method: as §2

[3] = system: Fusarium moniliforme (Fm); assay: Growth inhibition assay of fungal pathogens; assay type: cell-based; conditions: for IC90: Fusarium verticillioides, 48 h, read-out: Concentration at 90% Inhibition Fm
Summary of the method: as §2

[4] = system: Fusarium virguliforme (Fv); assay: Growth inhibition assay of fungal pathogens; assay type: cell-based; conditions: 48 h
Summary of the method: as §3

[5] = system: Phytophthora capsici (Pc); assay: Growth inhibition assay of fungal pathogens; assay type: cell-based; conditions: for IC90: Phytophthora capsici, read-out: Concentration at 90% Inhibition Pc
Summary of the method: as §3

Rhizoctonia solani (Rs) = assay: Growth inhibition assay of fungal pathogens; assay type: cell-based; conditions: 48 h, read-out: Concentration at 90% Inhibition Rs
Summary of the method: as §2

Septoria tritici (St) = assay: Growth inhibition assay of fungal pathogens; assay type: cell-based; conditions: for IC90: Zymoseptoria tritici, read-out: Concentration at 90% Inhibition St
Summary of the method: as §3

fungal (fACC2) ACC2 = fungal (fACC2) ACC2 (UniProt Q00955); conditions: read-out: fACC2 IC50; fungal ACC2, ADP-Glo
[6] = ATCC90028, 3 replicates, MIC recorded at 48 h
[7] = ATCC6258, 3 replicates, MIC recorded at 48 h
[8] = ATCC22019, 3 replicates, MIC recorded at 48 h
[9] = Table 4a, 48 hours, read-out: Concentration at 90% Inhibition Fv
[10] = Table 4b, 48 hours, read-out: Concentration at 90% Inhibition Fv
[11] = read-out: Concentration at 90% Inhibition Fv, Table 4b, 48 hours

human (hACC2) ACC2, sequence (O00763 whole entry): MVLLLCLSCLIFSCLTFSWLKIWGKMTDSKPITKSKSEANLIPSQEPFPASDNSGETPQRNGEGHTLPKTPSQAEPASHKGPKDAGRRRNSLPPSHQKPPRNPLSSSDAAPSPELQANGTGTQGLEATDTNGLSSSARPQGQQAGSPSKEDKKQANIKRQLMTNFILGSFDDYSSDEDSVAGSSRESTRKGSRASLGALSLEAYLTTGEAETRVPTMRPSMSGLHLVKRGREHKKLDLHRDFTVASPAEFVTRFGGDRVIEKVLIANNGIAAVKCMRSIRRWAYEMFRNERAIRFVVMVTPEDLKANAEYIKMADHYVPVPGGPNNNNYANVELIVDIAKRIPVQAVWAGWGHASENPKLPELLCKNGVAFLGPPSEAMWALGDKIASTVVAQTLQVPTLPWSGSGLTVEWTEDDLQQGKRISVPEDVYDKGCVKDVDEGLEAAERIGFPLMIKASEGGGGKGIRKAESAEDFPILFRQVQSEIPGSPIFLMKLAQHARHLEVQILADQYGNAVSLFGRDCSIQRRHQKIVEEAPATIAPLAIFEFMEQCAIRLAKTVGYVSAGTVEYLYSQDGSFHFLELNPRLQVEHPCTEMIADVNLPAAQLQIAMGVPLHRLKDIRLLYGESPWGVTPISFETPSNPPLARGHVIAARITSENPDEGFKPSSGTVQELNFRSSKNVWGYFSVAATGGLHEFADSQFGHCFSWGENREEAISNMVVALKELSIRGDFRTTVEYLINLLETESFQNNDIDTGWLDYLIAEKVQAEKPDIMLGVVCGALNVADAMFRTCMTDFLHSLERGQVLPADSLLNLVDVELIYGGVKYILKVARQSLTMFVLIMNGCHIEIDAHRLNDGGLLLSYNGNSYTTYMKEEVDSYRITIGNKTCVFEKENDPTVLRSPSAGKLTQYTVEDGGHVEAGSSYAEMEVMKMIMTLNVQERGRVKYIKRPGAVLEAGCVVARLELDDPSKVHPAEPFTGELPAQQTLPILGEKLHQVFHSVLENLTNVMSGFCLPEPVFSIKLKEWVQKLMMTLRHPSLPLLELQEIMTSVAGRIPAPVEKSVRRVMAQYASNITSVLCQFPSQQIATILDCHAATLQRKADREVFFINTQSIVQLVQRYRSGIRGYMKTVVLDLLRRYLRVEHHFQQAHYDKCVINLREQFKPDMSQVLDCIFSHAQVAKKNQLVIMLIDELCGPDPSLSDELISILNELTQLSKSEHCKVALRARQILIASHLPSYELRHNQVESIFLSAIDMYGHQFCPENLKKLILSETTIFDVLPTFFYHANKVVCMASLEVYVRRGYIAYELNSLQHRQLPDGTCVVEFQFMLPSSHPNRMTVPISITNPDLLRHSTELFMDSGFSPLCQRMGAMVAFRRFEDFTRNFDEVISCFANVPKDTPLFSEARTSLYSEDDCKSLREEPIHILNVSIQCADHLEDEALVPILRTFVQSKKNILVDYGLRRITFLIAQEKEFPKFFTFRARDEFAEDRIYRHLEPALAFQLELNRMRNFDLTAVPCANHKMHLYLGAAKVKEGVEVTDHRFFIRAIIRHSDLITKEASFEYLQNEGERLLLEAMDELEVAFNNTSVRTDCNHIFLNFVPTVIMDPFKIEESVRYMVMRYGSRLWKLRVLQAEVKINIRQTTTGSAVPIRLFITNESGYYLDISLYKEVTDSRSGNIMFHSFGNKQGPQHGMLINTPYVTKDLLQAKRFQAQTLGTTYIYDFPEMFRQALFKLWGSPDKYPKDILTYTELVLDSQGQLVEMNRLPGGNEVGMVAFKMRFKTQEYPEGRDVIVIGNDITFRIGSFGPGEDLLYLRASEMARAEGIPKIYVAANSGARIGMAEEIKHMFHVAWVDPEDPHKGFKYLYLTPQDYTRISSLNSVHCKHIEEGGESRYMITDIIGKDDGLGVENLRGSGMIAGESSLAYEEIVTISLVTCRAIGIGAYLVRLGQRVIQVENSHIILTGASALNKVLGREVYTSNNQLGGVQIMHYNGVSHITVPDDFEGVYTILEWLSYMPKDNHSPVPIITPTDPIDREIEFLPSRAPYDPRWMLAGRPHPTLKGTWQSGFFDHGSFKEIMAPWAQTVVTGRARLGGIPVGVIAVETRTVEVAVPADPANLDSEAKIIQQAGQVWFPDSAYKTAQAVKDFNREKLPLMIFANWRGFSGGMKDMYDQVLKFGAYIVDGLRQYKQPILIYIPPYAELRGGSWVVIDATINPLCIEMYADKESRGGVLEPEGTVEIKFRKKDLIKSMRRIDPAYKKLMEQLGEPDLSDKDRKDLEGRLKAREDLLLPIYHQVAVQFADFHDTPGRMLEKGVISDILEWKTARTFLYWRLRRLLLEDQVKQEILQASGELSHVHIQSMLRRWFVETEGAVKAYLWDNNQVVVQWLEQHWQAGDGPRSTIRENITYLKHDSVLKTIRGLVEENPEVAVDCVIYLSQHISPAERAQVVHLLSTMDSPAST
fungal (fACC2) ACC2, sequence (Q00955 whole entry): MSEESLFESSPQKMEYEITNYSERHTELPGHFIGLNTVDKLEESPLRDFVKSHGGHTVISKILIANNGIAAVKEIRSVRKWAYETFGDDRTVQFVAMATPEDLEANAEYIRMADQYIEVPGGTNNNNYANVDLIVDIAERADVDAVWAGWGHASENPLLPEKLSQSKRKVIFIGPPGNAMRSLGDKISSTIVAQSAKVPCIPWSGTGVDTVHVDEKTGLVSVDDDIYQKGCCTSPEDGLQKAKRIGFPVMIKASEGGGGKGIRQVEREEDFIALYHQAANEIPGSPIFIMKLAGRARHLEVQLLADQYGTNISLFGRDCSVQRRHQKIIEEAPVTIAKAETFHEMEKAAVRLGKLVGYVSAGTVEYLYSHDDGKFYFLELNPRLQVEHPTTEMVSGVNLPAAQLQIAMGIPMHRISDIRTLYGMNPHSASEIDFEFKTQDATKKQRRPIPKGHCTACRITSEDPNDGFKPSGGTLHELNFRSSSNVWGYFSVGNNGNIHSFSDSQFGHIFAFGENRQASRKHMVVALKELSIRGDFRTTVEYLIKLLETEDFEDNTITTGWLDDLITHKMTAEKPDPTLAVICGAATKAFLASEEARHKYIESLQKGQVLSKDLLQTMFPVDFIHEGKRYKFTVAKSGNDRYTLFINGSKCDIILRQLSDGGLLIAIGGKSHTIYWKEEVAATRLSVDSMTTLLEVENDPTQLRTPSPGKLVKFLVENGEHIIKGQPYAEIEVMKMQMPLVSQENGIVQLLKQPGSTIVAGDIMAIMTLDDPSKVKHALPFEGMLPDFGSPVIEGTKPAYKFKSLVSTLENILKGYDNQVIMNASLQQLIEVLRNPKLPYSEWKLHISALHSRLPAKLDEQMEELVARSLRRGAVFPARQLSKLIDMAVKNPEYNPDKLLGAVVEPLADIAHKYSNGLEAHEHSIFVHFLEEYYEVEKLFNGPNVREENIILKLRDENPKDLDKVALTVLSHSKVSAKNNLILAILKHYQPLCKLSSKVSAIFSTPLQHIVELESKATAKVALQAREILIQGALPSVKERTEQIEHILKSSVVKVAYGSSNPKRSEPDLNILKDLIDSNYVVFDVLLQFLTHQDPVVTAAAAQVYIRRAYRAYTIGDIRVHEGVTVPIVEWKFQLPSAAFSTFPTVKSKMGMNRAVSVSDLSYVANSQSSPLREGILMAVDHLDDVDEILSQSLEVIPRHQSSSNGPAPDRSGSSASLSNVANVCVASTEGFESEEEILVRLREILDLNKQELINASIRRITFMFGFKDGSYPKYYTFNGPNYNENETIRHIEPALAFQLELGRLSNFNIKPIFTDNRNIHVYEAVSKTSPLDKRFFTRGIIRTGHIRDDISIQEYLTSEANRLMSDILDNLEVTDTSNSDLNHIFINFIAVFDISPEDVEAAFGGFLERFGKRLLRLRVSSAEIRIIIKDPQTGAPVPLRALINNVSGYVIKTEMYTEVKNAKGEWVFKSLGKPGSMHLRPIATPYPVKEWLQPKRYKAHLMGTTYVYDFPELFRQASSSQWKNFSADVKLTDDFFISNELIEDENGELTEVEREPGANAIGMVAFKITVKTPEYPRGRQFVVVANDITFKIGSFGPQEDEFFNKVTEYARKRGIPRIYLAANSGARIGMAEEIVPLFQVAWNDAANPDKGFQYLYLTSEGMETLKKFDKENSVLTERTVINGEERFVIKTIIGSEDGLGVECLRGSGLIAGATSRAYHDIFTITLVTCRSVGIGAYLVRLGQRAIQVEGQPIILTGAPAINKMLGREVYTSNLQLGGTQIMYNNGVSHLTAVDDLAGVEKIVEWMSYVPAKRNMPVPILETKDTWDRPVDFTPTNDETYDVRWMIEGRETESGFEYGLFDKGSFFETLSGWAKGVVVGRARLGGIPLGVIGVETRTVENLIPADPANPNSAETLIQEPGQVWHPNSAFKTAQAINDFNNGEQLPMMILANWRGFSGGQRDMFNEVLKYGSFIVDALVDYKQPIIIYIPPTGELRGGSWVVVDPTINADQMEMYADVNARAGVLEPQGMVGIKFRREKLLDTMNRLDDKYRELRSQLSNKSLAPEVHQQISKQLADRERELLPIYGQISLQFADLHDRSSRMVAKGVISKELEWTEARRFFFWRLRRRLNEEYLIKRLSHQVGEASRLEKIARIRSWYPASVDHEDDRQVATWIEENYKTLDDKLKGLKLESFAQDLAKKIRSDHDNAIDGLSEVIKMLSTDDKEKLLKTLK

Structure (SMILES)	IC50 (human (hACC2) ACC2)	MIC (C. albicans ATCC 90028; [6])	MIC (C. krusei ATCC 6258; [7])	MIC [1, 8]	IC90 (Botrtyis cinerea (Bc); Table 4a)	IC90 (Botrtyis cinerea (Bc); Table 4b)	IC90 ([2]; Table 4a)	IC90 ([2]; Table 4b)	IC90 (Diplodia maydis (Dm); Table 4a)	IC90 (Diplodia maydis (Dm); Table 4b)	IC90 ([3]; Table 4b, 48 hours)	IC90 [4, 10]	IC90 (Rhizoctonia solani (Rs); Table 4a)	IC90 (Rhizoctonia solani (Rs); Table 4b)	IC50 (fungal (fACC2) ACC2)	IC90 ([5]; Table 4b, 48 hours)	IC90 (Septoria tritici (St); Table 4b, 48 hours)	also measured
COc1ccc(F)cc1[C@H](Cn1c(=O)n(C(C)(C)C(=O)N2CCCC2)c(=O)c2c(C)c(-n3cccn3)sc21)OCC(C)(C)O [Compound I-42, (R)-1-(2-(5-fluoro-2-methoxyphenyl)-2-(2-hydroxy-2-methylpropoxy)ethyl)-5-methyl-3-(2-methyl-1-oxo-1-(pyrrolidin-1-yl)propan-2-yl)-6-(1H-pyrazol-1-yl)thieno[2,3-d]pyrimidine-2,4(1H,3H)-dione]	3 to 10 nM	2.1 to 4 µg/mL (≈ 3.35 to 6.37 µM)	2.1 to 4 µg/mL (≈ 3.35 to 6.37 µM)	> 4.1 µg/mL	> 50 µg/mL	10 µg/mL (≈ 15.9 µM)	> 50 µg/mL	10 µg/mL (≈ 15.9 µM)	> 50 µg/mL	10 µg/mL (≈ 15.9 µM)	0.4 µg/mL (≈ 0.637 µM)	10 µg/mL (≈ 15.9 µM)	10 µg/mL (≈ 15.9 µM)	2 µg/mL (≈ 3.19 µM)	0.6 to 3 nM			IC90 ([3]; Table 4a, 48 hours): 0.4 µg/mL (≈ 0.637 µM); IC90 [4, 9]: > 50 µg/mL; IC90 ([5]; Table 4a, 48 hours): > 50 µg/mL; Concentration at 90% Inhibition Pc ([5]; Table 4b, 48 hours): D (“D” provided a compound concentration of >50 ppm at 90% inhibition of fungal pathogens); Concentration at 90% Inhibition St (Septoria tritici (St); Table 4b, 48 hours): D (“D” provided a compound concentration of >50 ppm at 90% inhibition of fungal pathogens); IC90 (Septoria tritici (St); Table 4a, 48 hours): > 50 µg/mL
COCCO[C@@H](Cn1c(=O)n(C(C)(C)C(=O)NC(C)C)c(=O)c2c(C)c(-n3cccn3)sc21)c1cc(F)ccc1OC [Compound I-43, (R)-2-(I-(2-(5-fluoro-2-methoxyphenyl)-2-(2-methoxy-ethoxy)ethyl)-5-methyl-2,4-dioxo-6-(1H-pyrazol-1-yl)-1,4-dihydrothieno[2,3-d]pyrimidin-3(2H)-yl)-N-isopropyl-2-methylpropanamide]	10 to 40 nM				> 50 µg/mL	10 µg/mL (≈ 16.6 µM)	> 50 µg/mL	> 50 µg/mL	> 50 µg/mL	10 µg/mL (≈ 16.6 µM)			> 50 µg/mL	10 µg/mL (≈ 16.6 µM)	0.6 to 3 nM			MIC (C. albicans ATCC 90028; ATCC90028, 48 h): 1.1 to 2 µg/mL (≈ 1.83 to 3.32 µM); MIC (C. krusei ATCC 6258; ATCC6258, 48 h): 0.25 to 1 µg/mL (≈ 0.415 to 1.66 µM); MIC ([1]; ATCC22019, 48 h): 2.1 to 4 µg/mL (≈ 3.49 to 6.65 µM); IC90 [3]: 2 µg/mL (≈ 3.32 µM); Concentration at 90% Inhibition Fm ([3]; Table 4b, 48 hours): B (“B” provided a compound concentration of 2.0 ppm at 90% inhibition of fungal pathogens); IC90 ([4]; read-out: Concentration at 90% Inhibition Fv, Table 4a, 48 hours): 2 µg/mL (≈ 3.32 µM); IC90 [4, 11]: 2 µg/mL (≈ 3.32 µM); IC90 ([5]; 48 h, Table 4a): > 50 µg/mL; IC90 ([5]; 48 h, Table 4b): > 50 µg/mL; IC90 (Septoria tritici (St); 48 h, Table 4a): > 50 µg/mL; IC90 (Septoria tritici (St); 48 h, Table 4b): > 50 µg/mL
COc1ccc(F)cc1[C@H](Cn1c(=O)n(C(C)(C)C(=O)N2CC=CC2)c(=O)c2c(C)c(-n3cccn3)sc21)OC1CCOCC1 [Compound I-45, (R)-3-(1-(2,5-dihydro-1H-pyrrol-1-yl)-2-methyl-1-oxopropan-2-yl)-1-(2-(5-fluoro-2-methoxyphenyl)-2-((tetrahydro-2H-pyran-4-yl)oxy)ethyl)-5-methyl-6-(1H-pyrazol-1-yl)thieno[2,3-d]pyrimidine-2,4(1H,3H)-dione]	10 to 40 nM	2.1 to 4 µg/mL (≈ 3.29 to 6.27 µM)	0.25 to 1 µg/mL (≈ 0.392 to 1.57 µM)	2.1 to 4 µg/mL (≈ 3.29 to 6.27 µM)	> 50 µg/mL	10 µg/mL (≈ 15.7 µM)	2 µg/mL (≈ 3.14 µM)	2 µg/mL (≈ 3.14 µM)	> 50 µg/mL	10 µg/mL (≈ 15.7 µM)	2 µg/mL (≈ 3.14 µM)	10 µg/mL (≈ 15.7 µM)	2 µg/mL (≈ 3.14 µM)	2 µg/mL (≈ 3.14 µM)	0.6 to 3 nM			IC90 ([3]; Table 4a, 48 hours): 2 µg/mL (≈ 3.14 µM); IC90 [4, 9]: > 50 µg/mL; IC90 ([5]; Table 4a, 48 hours): > 50 µg/mL; Concentration at 90% Inhibition Pc ([5]; Table 4b, 48 hours): D (“D” provided a compound concentration of >50 ppm at 90% inhibition of fungal pathogens); Concentration at 90% Inhibition St (Septoria tritici (St); Table 4b, 48 hours): D (“D” provided a compound concentration of >50 ppm at 90% inhibition of fungal pathogens); IC90 (Septoria tritici (St); Table 4a, 48 hours): > 50 µg/mL
COCCO[C@@H](Cn1c(=O)n(C(C)(C)C(=O)NC2CCCCC2)c(=O)c2c(C)c(-n3cccn3)sc21)c1cc(F)ccc1OC [Compound I-46, (R)—N-cyclohexyl-2-(1-(2-(5-fluoro-2-methoxyphenyl)-2-(2-methoxyethoxy)ethyl)-5-methyl-2,4-dioxo-6-(1H-pyrazol-1-yl)-1,4-dihydrothieno[2,3-d]pyrimidin-3(2H)-yl)-2-methylpropanamide]	> 40 nM					10 µg/mL (≈ 15.6 µM)		> 50 µg/mL		> 50 µg/mL				> 50 µg/mL	0.6 to 3 nM			MIC (C. albicans ATCC 90028; ATCC90028, 48 h): > 4.1 µg/mL; MIC (C. krusei ATCC 6258; ATCC6258, 48 h): > 4.1 µg/mL; MIC ([1]; ATCC22019, 48 h): > 4.1 µg/mL; IC90 [3]: 2 µg/mL (≈ 3.12 µM); IC90 [4, 11]: > 50 µg/mL; IC90 ([5]; 48 h, Table 4b): > 50 µg/mL; IC90 (Septoria tritici (St); 48 h, Table 4b): > 50 µg/mL
COCCO[C@@H](Cn1c(=O)n(C(C)(C)C(=O)NC2CCC2)c(=O)c2c(C)c(-n3cccn3)sc21)c1cc(F)ccc1OC [Compound I-47, (R)—N-cyclobutyl-2-(1-(2-(5-fluoro-2-methoxyphenyl)-2-(2-methoxyethoxy)ethyl)-5-methyl-2,4-dioxo-6-(1H-pyrazol-1-yl)-1,4-dihydrothieno[2,3-d]pyrimidin-3(2H)-yl)-2-methylpropanamide]	10 to 40 nM	0.25 to 1 µg/mL (≈ 0.407 to 1.63 µM)	0.25 to 1 µg/mL (≈ 0.407 to 1.63 µM)	0.25 to 1 µg/mL (≈ 0.407 to 1.63 µM)		2 µg/mL (≈ 3.26 µM)		10 µg/mL (≈ 16.3 µM)		> 50 µg/mL	0.4 µg/mL (≈ 0.652 µM)	2 µg/mL (≈ 3.26 µM)		> 50 µg/mL	0.6 to 3 nM	> 50 µg/mL	> 50 µg/mL	
COCCO[C@@H](Cn1c(=O)n([C@H](C)C(=O)N2CCCC2)c(=O)c2c(C)c(-n3cccn3)sc21)c1cc(F)ccc1OC [Compound I-76, 1-((R)-2-(5-fluoro-2-methoxyphenyl)-2-(2-methoxyethoxy)ethyl)-5-methyl-3-((R)-1-oxo-1-(pyrrolidin-1-yl)propan-2-yl)-6-(1H-pyrazol-1-yl)thieno[2,3-d]pyrimidine-2,4(1H,3H)-dione]	> 40 nM	> 4.1 µg/mL	> 4.1 µg/mL	> 4.1 µg/mL		> 50 µg/mL		> 50 µg/mL		> 50 µg/mL	2 µg/mL (≈ 3.34 µM)	> 50 µg/mL		> 50 µg/mL	3 to 10 nM	> 50 µg/mL	> 50 µg/mL	
COc1ccc(F)cc1[C@H](Cn1c(=O)n(C(C)(C)C(N)=O)c(=O)c2c(C)c(-n3cccn3)sc21)OCCC#N [Compound I-77, (R)-2-(1-(2-(2-cyanoethoxy)-2-(5-fluoro-2-methoxyphenyl)ethyl)-5-methyl-2,4-dioxo-6-(1H-pyrazol-1-yl)-1,4-dihydrothieno[2,3-d]pyrimidin-3(2H)-yl)-2-methylpropanamide]	> 40 nM	> 4.1 µg/mL	> 4.1 µg/mL	> 4.1 µg/mL		> 50 µg/mL		> 50 µg/mL		> 50 µg/mL	2 µg/mL (≈ 3.61 µM)	10 µg/mL (≈ 18 µM)		> 50 µg/mL	0.6 to 3 nM	> 50 µg/mL	> 50 µg/mL	
COc1ccc(F)cc1[C@H](Cn1c(=O)n(C(C)(C)C(=O)N2CCCC2)c(=O)c2c(C)c(-n3cccn3)sc21)OCCC#N [Compound I-81, (R)-3-(1-(5-fluoro-2-methoxyphenyl)-2-(5-methyl-3-(2-methyl-1-oxo-1-(pyrrolidin-1-yl)propan-2-yl)-2,4-dioxo-6-(1H-pyrazol-1-yl)-3,4-dihydrothieno[2,3-d]pyrimidin-(2H)-yl)ethoxy)propanenitrile]	3 to 10 nM	> 4.1 µg/mL	> 4.1 µg/mL	> 4.1 µg/mL		0.4 µg/mL (≈ 0.657 µM)		2 µg/mL (≈ 3.29 µM)		2 µg/mL (≈ 3.29 µM)	0.08 µg/mL (≈ 0.131 µM)	0.4 µg/mL (≈ 0.657 µM)		0.08 µg/mL (≈ 0.131 µM)	0.6 to 3 nM	> 50 µg/mL	> 50 µg/mL	
